Measured values reported in US8247377B2, “Non-steroidal glucocorticoid inhibitors and their use in treating inflammation, allergy and auto-immune conditions” (Glaxo Group Limited, priority 2006, dated 2012).

Columns and labels:
NFκB = NFκB agonist assay in A549 SPAP cells; format: cell-based; conditions: Homo sapiens; for Emax: A549, A549 SPAP cells, >85% = full agonist, ≧20% = partial or full agonist, read-out: average maximum asymptote in the NFkB assay; for IC50: A549 SPAP cells, TNFα 3.2 ng/ml, read-out: pIC50 for the NFkB assay (converted);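 for average maximum asymptote in the NFkB assay: maximum inhibition of the TNFα-induced NFκB-driven signal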
Text: Human lung carcinoma A549 cell line (ECACC No. 86012804) has been stably transfected in house with a plasmid containing an ELAM promoter sequence that has a NFκB response element within it. Stimulation of the cell line with TNFα results in intracellular signal transduction and ultimately translocation of NFκB into the nucleus. This activates the inserted DNA sequence resulting in transcription of the integrated SPAP gene, which is quantified using a colorimetric assay. […] The stably transfected cell line was grown as a monolayer in DMEM supplemented with FCS-HI (10%), Non-essential amino acids (1%), L-Glutamine (2 mM), Pen/Strep (1%) and Geneticin (50 mg/ml).
A 70% confluent T225 flask of A549 SPAP cells was harvested by centrifugation for 5 min at 200 g, resuspended in assay buffer (DMEM supplemented with 10% FCS 2×HI, 2 mM L-Glutamine, 1% Pen/Strep and Non essential amino acids) and diluted to 0.16×10^6/ml. 60 μl of cell solution was dispensed to each well of clear Nunc 384-well plates, containing compound at the required concentration. Plates were incubated for 1 h at 37° C., 95% humidity, 5% CO2 before 10 μl of TNFα was added at final concentration of 3.2 ng/ml and then returned to the cell incubator for 15 h. Plates were equilibrated to room temperature for 1 h prior to the addition of 25 μl of pNPP buffer (1M Diethanolamine pH 9.8, 0.5 mM MgCl2, 0.28M NaCl, 2 mg/ml pNPP) to each well of assay plates. The plates were covered to protect the reagents from light, and then incubated at room temperature for approximately 1 hour before reading them on an Ascent using a 405 nm single filter. Dose response curves were constructed from which pIC50 values were estimated.

glucocorticoid receptor = target: T1, glucocorticoid receptor (Homo sapiens, UniProt P04150); assay: Glucocorticoid receptor binding assay (fluorescence polarisation); conditions: competition with Alexa 555 fluorescently-labelled dexamethasone derivative, full length glucocorticoid receptor; read-out: glucocorticoid binding pIC50 (converted)
T1 construct: a partially purified full length glucocorticoid receptor
T1 sequence (P04150 1-777): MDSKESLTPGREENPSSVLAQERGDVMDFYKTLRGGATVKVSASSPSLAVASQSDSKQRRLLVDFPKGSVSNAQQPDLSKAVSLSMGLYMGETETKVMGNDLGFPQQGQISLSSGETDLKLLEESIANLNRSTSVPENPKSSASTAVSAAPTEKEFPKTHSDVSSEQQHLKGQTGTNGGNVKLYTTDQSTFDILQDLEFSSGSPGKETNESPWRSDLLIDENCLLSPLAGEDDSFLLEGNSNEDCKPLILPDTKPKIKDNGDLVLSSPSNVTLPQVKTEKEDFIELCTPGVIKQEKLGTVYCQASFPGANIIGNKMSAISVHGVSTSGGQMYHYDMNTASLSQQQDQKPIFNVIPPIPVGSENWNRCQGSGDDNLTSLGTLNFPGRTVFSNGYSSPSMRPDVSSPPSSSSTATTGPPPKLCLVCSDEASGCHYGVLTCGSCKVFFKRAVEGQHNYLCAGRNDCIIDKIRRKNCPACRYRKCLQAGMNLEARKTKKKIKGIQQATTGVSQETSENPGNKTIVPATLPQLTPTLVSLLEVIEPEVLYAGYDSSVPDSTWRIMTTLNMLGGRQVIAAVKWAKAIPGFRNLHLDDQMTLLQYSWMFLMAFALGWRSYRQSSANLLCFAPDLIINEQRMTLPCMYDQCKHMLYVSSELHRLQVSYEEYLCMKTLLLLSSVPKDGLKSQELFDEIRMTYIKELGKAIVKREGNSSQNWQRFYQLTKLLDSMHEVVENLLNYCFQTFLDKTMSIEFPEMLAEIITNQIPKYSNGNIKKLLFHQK
Protocol: Compounds were solvated and diluted in DMSO, and transferred directly into assay plates. Fluorescent dexamethasone and a partially purified full length glucocorticoid receptor were added to the plates, together with buffer components to stabilise the GR protein and incubated at room temperature for 2 hrs in the dark. Binding of each compound was assessed by analysing the displacement of fluorescent ligand by measuring the decrease in fluorescence polarisation signal from the mixture. Dose response curves were constructed from which pIC50 values were estimated.

MMTV promoter = assay: MMTV agonist assay in A549 MMTV cells; format: cell-based; conditions: Homo sapiens, A549, 6 h, >85% = full agonist, >20% and <85% = partial or efficacy selective agonist, read-out: average maximum asymptote in the MMTV agonist assay
Text: Human lung carcinoma A549 cell line (ECACC No. 86012804) has been stably transfected in house with a plasmid containing a renilla luciferase reporter with an MMTV promoter. Stimulation of the cell line with GR agonists results in intracellular signal transduction and ultimately translocation of GR into the nucleus. This activates the inserted DNA sequence resulting in transcription of the integrated luciferase gene, which is quantified using a light emission. The stably transfected cell line was grown as a monolayer in DMEM supplemented with FCS-HI (10%), Non-essential amino acids (1%), L-Glutamine (2 mM), Pen/Strep (1%) and Geneticin (50 mg/ml).
A 90% confluent T175 flask of A549 MMTV cells was harvested by centrifugation for 5 min at 200 g, resuspended in assay buffer (DMEM supplemented with 10% FCS 2×HI, 2 mM Glutamax, Non essential amino acids and 25 mM HEPES) and diluted to 0.1×10^6/ml. 70 μl of cell solution was dispensed to each well of white Nunc 384-well plates, containing compound at the required concentration. Plates were incubated for 6 h at 37° C., 95% humidity, 5% CO2. Plates were equilibrated to room temperature for 1 h prior to the addition of 10 μl of Renilla substrate to each well of assay plates. The plates were covered to protect the reagents from light, and then incubated at room temperature for approximately 15 mins before reading them on a Viewlux. Dose response curves were constructed from which pEC50 and maximum asymptote values were estimated.

progesterone receptor = target: T2, progesterone receptor (Homo sapiens, UniProt P06401); assay: Assay for progesterone receptor activity (CV-1 cells, PRb-BacMam/MMTV-BacMam); format: cell-based; conditions: CV-1 cells transduced with PRb-BacMam and MMTV-BacMam; read-out: pEC50 progesterone receptor activity (converted)
T2 construct: expressed in transfected cells; host or cells: CV-1 cells transduced with PRb-BacMam and MMTV-BacMam
T2 sequence (P06401 1-933): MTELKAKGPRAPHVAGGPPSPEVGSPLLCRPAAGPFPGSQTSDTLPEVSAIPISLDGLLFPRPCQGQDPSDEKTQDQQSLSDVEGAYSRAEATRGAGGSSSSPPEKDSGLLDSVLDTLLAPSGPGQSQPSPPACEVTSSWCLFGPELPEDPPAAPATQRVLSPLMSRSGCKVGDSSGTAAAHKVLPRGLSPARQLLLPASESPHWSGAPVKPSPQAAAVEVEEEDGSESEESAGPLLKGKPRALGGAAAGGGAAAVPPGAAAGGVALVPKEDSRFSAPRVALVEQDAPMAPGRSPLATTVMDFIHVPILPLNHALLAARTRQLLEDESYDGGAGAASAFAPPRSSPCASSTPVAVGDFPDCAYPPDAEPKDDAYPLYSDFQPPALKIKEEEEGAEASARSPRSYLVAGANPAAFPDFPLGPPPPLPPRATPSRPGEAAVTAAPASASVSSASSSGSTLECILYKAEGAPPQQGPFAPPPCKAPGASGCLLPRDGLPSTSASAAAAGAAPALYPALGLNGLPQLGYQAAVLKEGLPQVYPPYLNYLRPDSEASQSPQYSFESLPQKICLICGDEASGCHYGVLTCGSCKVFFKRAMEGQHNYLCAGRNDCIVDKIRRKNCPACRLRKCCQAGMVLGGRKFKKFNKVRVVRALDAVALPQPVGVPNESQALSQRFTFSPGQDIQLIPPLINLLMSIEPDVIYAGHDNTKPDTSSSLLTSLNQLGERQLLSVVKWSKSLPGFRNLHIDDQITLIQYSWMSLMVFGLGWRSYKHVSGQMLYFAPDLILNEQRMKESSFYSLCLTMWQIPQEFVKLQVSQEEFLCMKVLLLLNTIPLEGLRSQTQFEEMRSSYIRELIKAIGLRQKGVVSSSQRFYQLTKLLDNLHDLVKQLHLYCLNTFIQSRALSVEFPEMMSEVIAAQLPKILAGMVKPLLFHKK
Protocol: A T225 flask of CV-1 cells at a density of 80% confluency was washed with PBS, detached from the flask using 0.25% trypsin and counted using a Sysmex KX-21N. Cells were diluted in DMEM containing 10% Hyclone, 2 mM L-Glutamate and 1% Pen/Strep at 140 cells/μl and transduced with 10% PRb-BacMam and 10% MMTV-BacMam. […] of suspension cells were dispensed to each well of white Nunc 384-well plates, containing compounds at the required concentration. After 24 h 10 μl of Steadylite were added to each well of the plates. Plates were incubated in the dark for 10 min before reading them on a Viewlux reader. Dose response curves were constructed from which pEC50 values were estimated.

Row | SMILES | Emax (NFκB) | IC50 (NFκB) | IC50 (glucocorticoid receptor) | Emax (MMTV promoter) | EC50 (progesterone receptor)
1 | Nc1c(C(=O)NCC(O)(CN(CCF)C(=O)c2c(F)cccc2Cl)C(F)(F)F)cnn1-c1ccc(F)cc1 (racemic) [Example 29 (racemic), 5-amino-N-(2-{[[(2-chloro-6-fluorophenyl)carbonyl](2-fluoroethyl)amino]methyl}-3,3,3-trifluoro-2-hydroxypropyl)-1-(4-fluorophenyl)-1H-pyrazole-4-carboxamide] | > 85% | < 1000 nM | ≤ 316 nM | > 85% | 
2 | CCN(CC(O)(CNC(=O)c1cnn(-c2ccccc2Cl)c1N)C(F)(F)F)C(=O)c1c(F)cccc1F (racemic) [Example 40 (racemic), 5-amino-1-(2-chlorophenyl)-N-(2-{[[(2,6-difluorophenyl)carbonyl](ethyl)amino]methyl}-3,3,3-trifluoro-2-hydroxypropyl)-1H-pyrazole-4-carboxamide] | > 85% | < 1000 nM | ≤ 316 nM | > 85% | 
3 | Nc1c(C(=O)NCC(O)(CNC(=O)c2c(Cl)cccc2C(F)(F)F)C(F)(F)F)cnn1-c1ccc(F)cc1 (racemic) [Example 44 (racemic), 5-Amino-N-{2-[({[2-chloro-6-(trifluoromethyl)phenyl]carbonyl}amino)methyl]-3,3,3-trifluoro-2-hydroxypropyl}-1-(4-fluorophenyl)-1H-pyrazole-4-carboxamide] | ≥ 20% | < 1000 nM | ≤ 316 nM | 20 to 85% | 
4 | Nc1c(C(=O)NCC(O)(CNC(=O)c2c(F)cccc2Cl)C(F)(F)F)cnn1-c1ccc(F)cc1 (single isomer, unassigned) [Example 7 Enantiomer 2, 5-Amino-N-[2-({[(2-chloro-6-fluorophenyl)carbonyl]amino}methyl)-3,3,3-trifluoro-2-hydroxypropyl]-1-(4-fluorophenyl)-1H-pyrazole-4-carboxamide] | ≥ 20% |  |  | 20 to 85% | 
5 | Nc1c(C(=O)NCC(O)(CNC(=O)c2c(C(F)(F)F)cccc2C(F)(F)F)C(F)(F)F)cnn1-c1ccc(F)cc1 (single isomer, unassigned) [Example 15 Enantiomer 1, 5-amino-N-{2-[({[2,6-bis(trifluoromethyl)phenyl]carbonyl}amino)methyl]-3,3,3-trifluoro-2-hydroxypropyl}-1-(4-fluorophenyl)-1H-pyrazole-4-carboxamide] | ≥ 20% |  | ≤ 316 nM | 20 to 85% | > 1000 nM
6 | Nc1c(C(=O)NCC(O)(CNC(=O)c2c(F)cccc2C(F)(F)F)C(F)(F)F)cnn1-c1ccc(F)cc1 (single isomer, unassigned) [Example 19 Enantiomer 1, 5-amino-1-(4-fluorophenyl)-N-{3,3,3-trifluoro-2-[({[2-fluoro-6-(trifluoromethyl)phenyl]carbonyl}amino)methyl]-2-hydroxypropyl}-1H-pyrazole-4-carboxamide] | ≥ 20% | < 1000 nM | ≤ 316 nM | 20 to 85% | 
